The values below come from patent publication US10774051B2, “6-membered heterocyclic derivatives and pharmaceutical composition comprising the same” (Shionogi & Co., Ltd., priority 2015, dated 2020).

In one assay the target is human P2X7 receptor (Homo sapiens, UniProt Q99572, R270H/Y155H). As to the kind of experiment: Evaluation of human P2X7 receptor inhibitory activity (Yo-Pro uptake, BzATP stimulation, FLIPR TETRA). The following applies: 1321N1 cells stably expressing human P2X7 receptor; BzATP stimulation, Yo-Pro uptake; read-out: IC50 (antagonistic activity for the human P2X7 receptor). Type of assay: cell-based. The essentials:
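Yo-Pro dye uptake triggered by BzATP was monitored by FLIPR in human P2X7-transfected 1321N1 cells (SNP variant) in HEPES-buffered HBSS, pH 7.4-7.5. Compound was dispensed 8 min post-stimulation, then signal read for 20 min; IC50 derived logistically from inhibition of the fluorescence range.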
With `COc1cc(C)cc(Nc2nc(=O)c(OC)cn2Cc2cccc(F)c2)c1C` [Compound I-0405], the 50% inhibitory concentration (IC50) (in general, the concentration at which inhibition is half-maximal) was 2 nM. For `COc1cn(Cc2ccc(F)c(Cl)c2)c(N[C@@H]2CCCc3ccccc32)nc1=O` [Compound I-0336], the IC50 was 120 nM.

In the case of `Cc1cc(C)c(Nc2nc(=O)c(C(=O)O)cn2Cc2ccccc2)cc1C` [Compound I-0205], the IC50 is 91 nM. Same read-out and setting: next, `COc1cn(Cc2cc(F)c(F)c(F)c2)c(Nc2cc3sc(C)nc3cc2C)nc1=O` [Compound I-0940]: 240 nM.

Regarding `COc1cn(Cc2cc(F)cc(F)c2)c(Nc2ccc3c(c2C)COC3)nc1=O` [Compound I-0900], the IC50 was found to be 12 nM. On the same count and under the same terms, as for `COc1cn(Cc2ccccc2)c(Nc2cccc3c2CCO3)nc1=O` [Compound I-0120], the figure is 670 nM; as for `COc1cn(Cc2ccc(F)c(Cl)c2)c(Nc2cc(C#N)ccc2C)cc1=O` [Compound I-0957], 110 nM.

Staying with this assay, now noted: 1321N1 cells stably expressing human P2X7 receptor; BzATP stimulation, Yo-Pro uptake; read-out: IC50 (antagonistic activity for the human P2X7 receptor), class symbol.
For `Cc1c(Cl)cccc1Nc1nc(=O)c(Cl)cn1Cc1ccccc1` [Compound I-0011], the IC50 lay within 10 to 100 nM. Still for that read-out and setting: next, `CCOc1cn(Cc2ccccc2)c(Nc2cccc(Cl)c2C)nc1=O` [Compound I-0137]: 10 to 100 nM; `COc1cn(Cc2ccccc2)c(Nc2c(Cl)cccc2Cl)nc1=O` [Compound I-0083]: 500 to 1000 nM; `COc1cn(Cc2ccccc2)c(Nc2cccc(OC(F)F)c2Cl)nc1=O` [Compound I-0133]: 100 to 500 nM.

Regarding `COc1ccccc1CNc1nc(=O)c(OC)cn1Cc1ccccc1` [Compound I-0113], the IC50 lay in the range of 500 to 1000 nM. On the same count and under the same terms, as for `CCc1ccccc1Nc1nc(=O)c(Br)cn1Cc1ccccc1` [Compound I-0107], the figure is 100 to 500 nM. On the same count and under the same terms, next, `COc1cn(Cc2ccc(Cl)c(F)c2)c(Nc2cc3c(cc2C)OCCO3)nc1=O` [Compound I-0293]: 10 to 100 nM.

Consider `COCc1cccc(Nc2nc(=O)c(OC)cn2Cc2ccc(F)c(Cl)c2)c1C` [Compound I-0353], for which the concentration for half-maximal inhibition (IC50) is 10 to 100 nM. Same read-out and setting: next, `COc1ccc(Nc2nc(=O)c(OC)cn2Cc2ccc(F)c(Cl)c2)c(C)c1C` [Compound I-0394]: < 10 nM. The same measure, in the same setting: as for `COc1cn(Cc2ccccc2)c(Nc2ccccc2Cl)nc1=O` [Compound I-0060], the figure is 500 to 1000 nM. The same measure, in the same setting: next, `COc1cc(Nc2nc(=O)c(OC)cn2Cc2cc(F)cc(F)c2)c(C)cc1Cl` [Compound I-0510]: < 10 nM.

As for `CCOc1cc(C)c(Nc2nc(=O)c(OC)cn2Cc2cccc(F)c2)cc1C` [Compound I-0257], the IC50 was < 10 nM.

Turning to `COc1cn(Cc2ccccc2)c(Nc2cccc(Cl)c2C)nc1=O` [Compound I-0037], the IC50 was < 10 nM. On the same count and under the same terms, next, `COc1cn(Cc2cccc(F)c2)c(Nc2cccc(C)c2C)nc1=O` [Compound I-0323]: < 10 nM. Same read-out and setting: next, `COc1cccc(Nc2nc(=O)c(OC)cn2Cc2cc(F)c(F)c(F)c2)c1C` [Compound I-0572]: < 10 nM. On the same count and under the same terms, next, `COc1cn(Cc2cc(F)cc(F)c2)c(Nc2cccc(Cl)c2C)nc1=O` [Compound I-0002]: < 10 nM. Regarding `COc1cn(Cc2ccc(F)cc2)c(Nc2cc(C)c(C)cc2C)nc1=O` [Compound I-0162], the IC50 is < 10 nM. Still for that read-out and setting: as for `COc1cn(Cc2ccc(F)c(Cl)c2)c(Nc2cccc(OC(F)F)c2C)nc1=O` [Compound I-0511], the figure is < 10 nM; as for `COc1cn(Cc2ccccc2F)c(Nc2cc(C)c(Cl)cc2C)nc1=O` [Compound I-0167], 10 to 100 nM; as for `COc1cn(Cc2ccccc2)c(Nc2cc(C)cc(C)c2C)nc1=O` [Compound I-0298], 10 to 100 nM. The same measure, in the same setting: next, `COc1cn(Cc2ccc(F)c(Cl)c2)c(Nc2ccc(OC(C)C)cc2C)nc1=O` [Compound I-0532]: 10 to 100 nM; `COc1cn(Cc2ccc(F)c(Cl)c2)c(Nc2cc(OC(C)C)ccc2C)nc1=O` [Compound I-0321]: 10 to 100 nM; `COc1cn(Cc2cc(F)cc(F)c2)c(Nc2cccc(OC(C)C)c2C)nc1=O` [Compound I-0514]: 10 to 100 nM.

`COc1cn(Cc2ccc(F)c(Cl)c2)c(Nc2ccc(N(C)C)cc2C)nc1=O` [Compound I-0248]: the half-inhibitory concentration (IC50) was in the range of 10 to 100 nM.

Consider `COc1cn(Cc2ccccc2)c(Nc2cccc(OC(F)F)c2C)nc1=O` [Compound I-0093], for which the IC50 was in the range of 10 to 100 nM.

The assay is the same for the next values; noted with them: antagonistic activity for the human P2X7 receptor; read-out: IC50.
`Cc1cccc(Nc2nc(=O)c(F)cn2Cc2cc(F)c(F)c(F)c2)c1C` [Compound I-1189]: the IC50 was < 10 nM. In the case of `COc1ccc(Nc2nc(=O)c(OC)cn2Cc2cc(F)c(F)c(F)c2)c(Cl)c1` [Compound I-0847], the IC50 is < 10 nM. The same measure, in the same setting: next, `Cn1ccc2c(Nc3nc(=O)c(F)cn3Cc3cc(F)cc(F)c3)cccc21` [Compound I-1021]: < 10 nM. Same read-out and setting: as for `COc1cc(C)c(Nc2nc(=O)c(F)cn2Cc2cc(F)c(F)c(F)c2)cc1C` [Compound I-1180], the figure is < 10 nM. The same measure, in the same setting: as for `Cc1cc(Nc2nc(=O)ccn2Cc2cc(F)c(F)c(F)c2)c2cc[nH]c2c1` [Compound I-1161], the figure is < 10 nM; as for `COc1cn(Cc2ccc(F)c(Cl)c2)c(Nc2cc(C)c(Cl)cc2C)cc1=O` [Compound I-0949], 100 to 500 nM; as for `COc1cn(Cc2ccccc2)c(Nc2cc(-c3cccn(C)c3=O)ccc2C)nc1=O` [Compound I-0587], 10 to 100 nM. With `COc1cn(Cc2ccccc2)c(Nc2cc(OC(F)F)ccc2C)nc1=O` [Compound I-0870], the IC50 fell in the range of 10 to 100 nM. Still for that read-out and setting: next, `Cc1cccc(Nc2nc(=O)c(F)cn2Cc2cc(F)c(F)c(F)c2)c1F` [Compound I-1185]: < 10 nM; `COc1cn(Cc2ccc(F)c(Cl)c2)c(Nc2cccc3c(=O)n(C)ccc23)nc1=O` [Compound I-0902]: 10 to 100 nM; `CCc1ccc(OC)cc1Nc1nc(=O)c(OC)cn1Cc1cc(F)cc(F)c1` [Compound I-0637]: < 10 nM. The same measure, in the same setting: next, `Cc1nn(Cc2cc(F)c(F)c(F)c2)c(Nc2ccc3[nH]ccc3c2C)nc1=O` [Compound I-1262]: < 10 nM; `COc1cn(Cc2ccc(F)c(Cl)c2)c(Nc2cc3c(cc2C)OC(F)(F)O3)nc1=O` [Compound I-0727]: 100 to 500 nM. On the same count and under the same terms, next, `COc1cn(Cc2cc(F)cc(F)c2)c(Nc2cc(-c3cscn3)ccc2C)nc1=O` [Compound I-0753]: < 10 nM; `COc1ccc(Nc2nc(=O)c(F)cn2Cc2ccc(F)c(F)c2)c(C)c1` [Compound I-0841]: < 10 nM.

For `COc1cn(Cc2ccc(F)c(Cl)c2)c(Nc2ccc3[nH]ccc3c2C)nc1=O` [Compound I-0584], the IC50 was < 10 nM.

Consider `COc1cc(Nc2nc(=O)c(OC)cn2Cc2ccc(F)c(Cl)c2)c(C)cc1F` [Compound I-0686], for which the IC50 is < 10 nM. Same read-out and setting: next, `CCc1ccc(OC)cc1Nc1nc(=O)c(OC)cn1Cc1cc(F)cc(Cl)c1` [Compound I-0657]: 10 to 100 nM; `COc1cc(Cl)c(Nc2nc(=O)c(C)cn2Cc2cc(F)c(F)c(F)c2)cc1OC` [Compound I-1139]: 10 to 100 nM; `COc1cn(Cc2cc(F)cc(F)c2)c(Nc2cc(C)cc3[nH]ccc23)nc1=O` [Compound I-0650]: 10 to 100 nM. Still for that read-out and setting: next, `COc1ccc(C)c(Nc2nc(=O)c(F)cn2Cc2cc(F)cc(F)c2)c1` [Compound I-1069]: 10 to 100 nM. For the compound `COc1cn(Cc2ccccc2)c(Nc2cccc3c(=O)n(C)ccc23)nc1=O` [Compound I-0901], the 50% inhibitory concentration (IC50) fell in the range of 100 to 500 nM. As to `COc1cn(Cc2cc(F)c(F)c(F)c2)c(Nc2cc3nc(C)sc3cc2C)nc1=O` [Compound I-0760], the IC50 lay within 10 to 100 nM.
